How the values were obtained:
androgen receptor [1] = target: T1, androgen receptor (Homo sapiens, UniProt P10275); test: Yeast two-hybrid screening of unbiased X15 peptide library, ligand induced β-galactosidase activity (FIG. 3, Table 503); assay type: cell-based; set-up: expressed in transfected cells; host or cells: Saccharomyces cerevisiae PJ69-4α; ligand induced β-galactosidase activity, No Lig / ligand induced β-galactosidase activity, DHT / ligand induced β-galactosidase activity, CPA / ligand induced β-galactosidase activity, RU / ligand induced β-galactosidase activity, Test / ligand induced β-galactosidase activity, MPA: unit not given here; settings: for ligand induced β-galactosidase activity, CPA / ligand induced β-galactosidase activity, DHT / ligand induced β-galactosidase activity, MPA / ligand induced β-galactosidase activity, RU / ligand induced β-galactosidase activity, Test / ligand induced β-galactosidase activity, No Lig: yeast two-hybrid; for Fold induction: untitled table before Table 503, values match DHT / No Lig of Table 503
T1 sequence (P10275 1-920): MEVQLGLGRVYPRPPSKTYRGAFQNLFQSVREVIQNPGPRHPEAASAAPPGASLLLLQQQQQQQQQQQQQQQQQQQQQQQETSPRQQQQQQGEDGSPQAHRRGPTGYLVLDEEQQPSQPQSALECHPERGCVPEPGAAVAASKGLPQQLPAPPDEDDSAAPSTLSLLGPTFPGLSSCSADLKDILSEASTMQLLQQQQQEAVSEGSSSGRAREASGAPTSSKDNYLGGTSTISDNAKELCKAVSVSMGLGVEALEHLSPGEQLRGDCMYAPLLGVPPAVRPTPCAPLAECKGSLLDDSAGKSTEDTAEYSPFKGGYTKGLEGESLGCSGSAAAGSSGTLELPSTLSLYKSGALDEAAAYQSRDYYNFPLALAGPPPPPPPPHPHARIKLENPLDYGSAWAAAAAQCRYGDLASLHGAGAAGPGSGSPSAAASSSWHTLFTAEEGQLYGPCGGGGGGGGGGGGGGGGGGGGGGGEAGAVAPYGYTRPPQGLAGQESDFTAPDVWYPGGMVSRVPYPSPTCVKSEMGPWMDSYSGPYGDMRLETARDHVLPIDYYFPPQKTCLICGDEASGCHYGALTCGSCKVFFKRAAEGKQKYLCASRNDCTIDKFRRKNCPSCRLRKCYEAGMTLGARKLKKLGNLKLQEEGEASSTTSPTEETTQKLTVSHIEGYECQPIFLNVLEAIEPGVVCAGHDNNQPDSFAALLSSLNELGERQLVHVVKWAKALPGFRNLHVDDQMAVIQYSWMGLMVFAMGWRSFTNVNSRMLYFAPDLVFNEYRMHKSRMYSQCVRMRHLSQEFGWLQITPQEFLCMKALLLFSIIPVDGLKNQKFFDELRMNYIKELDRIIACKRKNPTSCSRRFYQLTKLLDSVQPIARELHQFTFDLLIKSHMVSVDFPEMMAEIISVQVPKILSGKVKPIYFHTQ
Text: Our library contained predominantly 15 random amino acid residues/peptide in order to identify motifs that might interact with nuclear receptor domains. If ligand is provided to the cells, one can screen for peptides that interact with the ligand-bound receptor. […] Included at the ends of the oligonucleotide were the synthetic restriction endonuclease cleavage sites, EcoRI or Mfe I (5′ end) and Sal I (3′ end). Oligonucleotides were annealed, then cleaved with excess restriction endonuclease and purified on agarose gels. The purified set of oligonucleotides was subcloned as an in-frame carboxy-terminal fusion to a Gal4 DNA binding domain (plasmid vector pMA424 derivative). […] The transformation mix was divided and grown on plates of selective media containing ligand and 25 mM 3-aminotriazole at 30° C. until colonies appeared in 3-7 days. […] Dihydrotestosterone (DHT) and medroxyprogesterone (MPA) were added to the media at 100 nM to identify peptides that interact with the receptor in the presence of ligand. After colonies appeared they were picked and dispersed into individual wells of a 96-well plate containing rich media (YPD).
To determine ligand dependence, two microliter aliquots were removed from the cell suspension, and arrayed and spotted onto each of two rectangular agar plates, one with 100 nM ligand and one without ligand. Growth was monitored daily.
A secondary test of ligand dependent activation was performed using the integrated GAL4-driven lacZ gene. Cell suspensions of the initial positive clones were diluted 20-fold into 20 microliters of rich media in a microplate and grown overnight at 30° C. in the presence and absence of ligand. Microplates were centrifuged for 5 minutes at 3000 rpm in a swinging table top centrifuge to pellet the yeast cells, and the overlying media was aspirated. […] An OD650 density determination was made to normalize the β-galactosidase activity. β-galactosidase activity was monitored following the addition of buffer containing chlorophenol red-β-galactopyranoside (CPRG) (Boehringer Mannheim) substrate at a final concentration of 0.5 mM. […] The maximum slope value of this measurement was normalized to cell density from the initial OD650 value, and the relative ligand dependence of β-galactosidase was determined by comparing the values plus and minus ligand.
In FIG. 3, all of these ligands were tested. The plasmids from true positives were extracted using standard yeast extraction protocols and re-transformed to verify the positive phenotype.

androgen receptor [2] = target: T1, androgen receptor; assay type: cell-based; set-up: expressed in transfected cells; settings: for luciferase normalized to β-galactosidase, DHT / luciferase normalized to β-galactosidase, MPA / luciferase normalized to β-galactosidase, RU486 / luciferase normalized to β-galactosidase, no compound: mammalian two-hybrid, Huh-7 cells; for luciferase normalized to β-galactosidase, DHT: ligand DHT; for luciferase normalized to β-galactosidase, MPA: ligand MPA; for luciferase normalized to β-galactosidase, RU486: ligand RU486
Text: We used a mammalian two-hybrid system to determine specificities of the AR-binding peptides previously identified, through screening of the aforementioned yeast library, as ligand-dependent in their binding activity. Ligand was provided to the cells so the interaction could be observed. The human hepatoma cell line, Huh-7, was used as the recipient of two-hybrid vectors, pM and pVP16 (Clontech) (FIGS. 6A and 6B), containing fusions with peptide and AR, respectively. According to Clontech literature, the Clontech vectors pM and VP16 generate fusions of protein X with the GAL4 DNA-BD and fusions of protein Y with the VP16AD, in the Mammalian MM Two-Hybrid Assay Kit (#K1602-1). (Note: pM and VP16 contain unique cloning sites in the same order and reading frame as the DNA-BD and AD, respectively, vectors in the yeast […] Two-Hybrid Systems.) A third vector, pG5CAT, provides a CAT reporter gene under the control of a GAL4-responsive element and minimal promoter of the adenovirus E1b. The three vectors are cotransfected into any suitable mammalian host cell line by standard methods. The interaction between proteins X and Y is then assayed by measuring CAT gene expression by any standard method. In the absence of activation (i.e., no protein-protein interaction), the minimal E1b promoter will not express significant levels of CAT.
Briefly, cells are seeded in a 24-well culture plate to a density of 50-80% confluence in phenol red-free media containing charcoal-dextran stripped fetal bovine serum (10%). Following incubation overnight, cells are transfected with plasmids pM-peptide, pVP16-AR, pCMV-b-gal, and p5XGAL-Luc3 DNAs using lipofectamine 2000 (LifeTech) according to the manufacturer's protocol. Transfections are allowed to proceed for 6 hours and the transfection media is aspirated and replaced with recovery media for 18 hours. Following the recovery period, cells are treated with compound for 24 hours prior to cell harvesting. Cells are washed with PBS and then lysed using the lysis buffer from the Galacto-Light Plus β-galactosidase assay kit (Tropix). Assays for luciferase and β-galactosidase were performed as described by the manufacturer. Peptide/AR interactions are described in terms of the luciferase activity normalized for transfection efficiency using β-galactosidase activity (see FIG. 4A). Two types of useful information arose from these methods: 1) we generated a panel of useful peptide probes to analyze the conformational state of AR, and 2) we “fingerprinted” AR modulators with respect to AR conformation (FIG. 4B). […] FIG. 4B is the converse of 4A. It compares the ability of six ligands (DHT, MPA, CYP, RU486, FLUT and DHEAs to interact with AR in the presence of each of four peptides (D30, 5G11, B8H3 and […]). Thus, it is a “fingerprint” of each of the six ligands using a four peptide panel. (Note that “1269” and D30” refer to the same peptide.)

ERβ = ERβ (Homo sapiens, UniProt Q92731); test: Binding of the peptide probes to ERβ in the presence of modulators (Table 15b)
Chain of ERβ (Q92731 whole entry, species assumed): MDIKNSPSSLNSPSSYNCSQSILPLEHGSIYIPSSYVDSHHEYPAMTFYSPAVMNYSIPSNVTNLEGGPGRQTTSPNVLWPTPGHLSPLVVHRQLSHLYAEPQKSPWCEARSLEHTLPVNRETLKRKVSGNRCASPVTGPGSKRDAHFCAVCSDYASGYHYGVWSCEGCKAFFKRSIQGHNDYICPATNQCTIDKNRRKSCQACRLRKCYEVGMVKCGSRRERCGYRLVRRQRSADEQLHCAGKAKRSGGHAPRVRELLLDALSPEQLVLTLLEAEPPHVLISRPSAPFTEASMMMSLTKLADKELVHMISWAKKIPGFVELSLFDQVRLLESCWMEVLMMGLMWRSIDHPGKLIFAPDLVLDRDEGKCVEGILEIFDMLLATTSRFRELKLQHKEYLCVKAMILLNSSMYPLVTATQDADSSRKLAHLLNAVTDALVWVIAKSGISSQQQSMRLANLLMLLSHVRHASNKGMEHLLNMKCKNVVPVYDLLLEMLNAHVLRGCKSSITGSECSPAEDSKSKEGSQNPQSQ

EFRFPFHEMVREWESMGLERVRYAEP [M4D1]
ligand induced β-galactosidase activity, CPA (androgen receptor [1]): −0.03955
ligand induced β-galactosidase activity, DHT (androgen receptor [1]): 0.3948
ligand induced β-galactosidase activity, MPA (androgen receptor [1]): 1.698
ligand induced β-galactosidase activity, RU (androgen receptor [1]): 0.1
ligand induced β-galactosidase activity, Test (androgen receptor [1]): 0.1337
ligand induced β-galactosidase activity, No Lig (androgen receptor [1]): 0

EFRSSVFEQMYLCTGGSLDLQPS* [B5G11]
luciferase normalized to β-galactosidase, CYP. (androgen receptor [2]): 4.462
luciferase normalized to β-galactosidase, DHT (androgen receptor [2]): 15.84
luciferase normalized to β-galactosidase, MPA (androgen receptor [2]): 8.029
luciferase normalized to β-galactosidase, RU486 (androgen receptor [2]): 0.1051
luciferase normalized to β-galactosidase, no compound (androgen receptor [2]): 0.05028
ligand induced β-galactosidase activity, CPA (androgen receptor [1]): 0.9726
ligand induced β-galactosidase activity, DHT (androgen receptor [1]): 3.964
ligand induced β-galactosidase activity, RU (androgen receptor [1]): 0.9
ligand induced β-galactosidase activity, No Lig (androgen receptor [1]): 0.6382

O=C(c1ccc(OCCN2CCCCC2)cc1)c1c(-c2ccc(O)cc2)sc2cc(O)ccc12 [Raloxifene]
Equiv. (equivalency), peptide probe α/βIII on ERβ (ERβ): 77%
Equiv. (equivalency), peptide probe α/βIV on ERβ (ERβ): 0%
Equiv. (equivalency), peptide probe α/βV on ERβ (ERβ): 0%
Equiv. (equivalency), peptide probe βI on ERβ (ERβ): −53%
Equiv. (equivalency), peptide probe βIII on ERβ (ERβ): −71%

EFRQSFVSEILGGGWLPLDLOPS [M2H3]
Fold induction (androgen receptor [1]): 10
ligand induced β-galactosidase activity, CPA (androgen receptor [1]): 8.592
ligand induced β-galactosidase activity, DHT (androgen receptor [1]): 24.12
ligand induced β-galactosidase activity, MPA (androgen receptor [1]): 19.25
ligand induced β-galactosidase activity, RU (androgen receptor [1]): 6.8
ligand induced β-galactosidase activity, Test (androgen receptor [1]): 26.57
ligand induced β-galactosidase activity, No Lig (androgen receptor [1]): 2.53

C[C@]12CC[C@@H]3c4ccc(O)cc4CC[C@H]3[C@@H]1C[C@@H](O)[C@@H]2O [Estriol]
Equiv. (equivalency), peptide probe α/βI on ERβ (ERβ; probe α/βI, positive: % of maximum stimulation by the modulator used to isolate the probe, negative: % of reduction by ICI 182,780): 81%
Equiv. (equivalency), peptide probe α/βIII on ERβ (ERβ): −57%
Equiv. (equivalency), peptide probe α/βIV on ERβ (ERβ): −75%
Equiv. (equivalency), peptide probe α/βV on ERβ (ERβ): 0%
Equiv. (equivalency), peptide probe βI on ERβ (ERβ): −96%
Equiv. (equivalency), peptide probe βIII on ERβ (ERβ): 77%

EFVNWDAVVPWSELVALLDLOPS [B8A10]
Fold induction (androgen receptor [1]): 1
ligand induced β-galactosidase activity, CPA (androgen receptor [1]): 0.3955
ligand induced β-galactosidase activity, DHT (androgen receptor [1]): 0.6163
ligand induced β-galactosidase activity, RU (androgen receptor [1]): 0.4
ligand induced β-galactosidase activity, No Lig (androgen receptor [1]): 0.8753

EFHSRLRVEVVSWGIGSTCSQANSGRISYDL* [B8H3]
luciferase normalized to β-galactosidase, CYP. (androgen receptor [2]): 10.47
luciferase normalized to β-galactosidase, DHT (androgen receptor [2]): 11.6
luciferase normalized to β-galactosidase, MPA (androgen receptor [2]): 11.33
luciferase normalized to β-galactosidase, RU486 (androgen receptor [2]): 3.879
luciferase normalized to β-galactosidase, no compound (androgen receptor [2]): 0.1316
Fold induction (androgen receptor [1]): 22
ligand induced β-galactosidase activity, CPA (androgen receptor [1]): 0.3927
ligand induced β-galactosidase activity, DHT (androgen receptor [1]): 3.807
ligand induced β-galactosidase activity, RU (androgen receptor [1]): −0.0
ligand induced β-galactosidase activity, No Lig (androgen receptor [1]): 0.1737

EFPELLAMTRWGRHAALLEPQRLPPPRTTTQPQTEFERMFFFTRPMRTTGLLDLQPS [B2A7]
ligand induced β-galactosidase activity, CPA (androgen receptor [1]): 0.2919
ligand induced β-galactosidase activity, DHT (androgen receptor [1]): 1.719
ligand induced β-galactosidase activity, RU (androgen receptor [1]): 0.5
ligand induced β-galactosidase activity, No Lig (androgen receptor [1]): 0.3711

HPTHSSRLWELLMEATPTM [D30]
luciferase normalized to β-galactosidase, CYP. (androgen receptor [2]): 11.18
luciferase normalized to β-galactosidase, DHT (androgen receptor [2]): 12.59
luciferase normalized to β-galactosidase, MPA (androgen receptor [2]): 15.62
luciferase normalized to β-galactosidase, RU486 (androgen receptor [2]): 0.8461
luciferase normalized to β-galactosidase, no compound (androgen receptor [2]): 0.03854

Reference: patent publication US20030224390A1, “Method of identifying conformation-sensitive binding peptides and uses thereof” (Karo Bio AB, priority 2000, published 2003)
